What all share (assay): NCI tumour cell line growth inhibition, 48 h
Experiment [1] relates to MDA-MB-231 breast.
The test system of experiment [2] is UACC-257 melanoma.
For experiment [3], the system named is SF-539 CNS.
The subject of experiment [4] is K-562 leukemia.
Experiment [5] relates to SF-295 CNS.
The test system of experiment [6] is KM12 colon.
Experiment [7] relates to T-47D breast.
Experiment [8] relates to SN12C renal.
Experiment [9] concerns MOLT-4 leukemia.
In experiment [10] the test system is IGROV1 ovarian.

This is an account of results in PubChem BioAssay (NCI).

Structures are written as SMILES.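 These data come from cells grown in 96-well plates and exposed to compound for 48 hours at five concentrations. GI50 = concentration required for 50% inhibition of growth. At the TGI there is no net growth.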

`N#C/C(=C\c1cn(-c2ccccc2)c2ccccc12)C(=O)O`: the GI50 in experiment [1] was 44.2 µM; in experiment [2], more than 100 µM; in experiment [3], 39.2 µM; in experiment [4], 71.7 µM; in experiment [5] it was 28.1 µM; in experiment [6], 30.1 µM. Further, the GI50 in [7] was 29.6 µM; in [8], 51.1 µM; in [9] it was 72.8 µM; in experiment [10] it was 49.3 µM. Further, the TGI in [1], in experiment [2], in experiment [3], in [4], in experiment [5] and in experiment [6] was more than 100 µM each time. In addition, the TGI in experiment [7], in experiment [8], in [9] and in experiment [10] was more than 100 µM each time.

In the case of `O=C(CNC(=O)c1cccc2ccccc12)Nc1ccccc1Oc1cccc(O)c1`, the GI50 was 17.6 µM in experiment [1]; more than 25 µM in experiment [2]; 4.06 µM in experiment [3]; 1.05 µM in [4]; 2.2 µM in experiment [5]; 2.18 µM in [6]. Also, the GI50 in experiment [7] is 9.84 µM; in experiment [8], more than 25 µM; in experiment [9], 4.84 µM; in [10], 9.96 µM. In addition, the TGI in experiment [1] is more than 25 µM; in [2], more than 25 µM; in experiment [3] it was 13.8 µM; in experiment [4], more than 25 µM; in experiment [5], more than 25 µM; in experiment [6], more than 25 µM. For the same compound, the TGI in experiment [7], in experiment [8], in experiment [9] and in experiment [10] was more than 25 µM throughout.

Regarding `COc1nccc(-c2c(-c3ccc(F)cc3)ncn2C2CCC(O)CC2)n1` (stereo not given), the GI50 in experiment [1] was more than 100 µM; in experiment [2], more than 100 µM; in experiment [3], more than 100 µM; in [4] it was 44.1 µM; in [5] it was more than 100 µM; in experiment [6], more than 85.6 µM. For the same compound, the GI50 was 54.5 µM in experiment [7], 61.8 µM in experiment [8], more than 95.3 µM in experiment [9] and 22.2 µM in experiment [10]. In addition, the TGI in experiment [1], in [2], in experiment [3], in experiment [4], in [5] and in [6] was more than 100 µM throughout. Besides, the TGI in [7], in experiment [8], in experiment [9] and in experiment [10] was more than 100 µM in each case.

Turning to `CC(=O)OCC(=O)[C@@]1(O)[C@H](C)C[C@H]2[C@@H]3C=C(C)C4=Cc5c(cnn5-c5ccc(F)cc5)C[C@]4(C)[C@H]3[C@@H](O)C[C@@]21C`, the GI50 in experiment [1] is 2.56 µM; in [2], 2.76 µM; in experiment [3], 0.473 µM; in experiment [4], 1.15 µM; in experiment [5], 0.982 µM; in experiment [6], 1.44 µM. In addition, the GI50 in experiment [7] is 2.75 µM; in experiment [8], 1.89 µM; in experiment [9], 1.94 µM; in [10] it was 2.85 µM. Further, the TGI was 6.43 µM in [1]; 8.54 µM in experiment [2]; 2.35 µM in [3]; more than 23.2 µM in [4]; 5.13 µM in [5]; 2.94 µM in [6]. Further, the TGI in [7] is 8.72 µM; in experiment [8] it was 7.08 µM; in [9] it was 6.76 µM; in [10], 12.8 µM.

In the case of `COc1ccc2c(c1)[nH]c(=O)c1c3cccnc3cn21`, the GI50 in experiment [1] is 0.299 µM; in [2] it was 0.677 µM; in experiment [3] it was 0.033 µM; in experiment [4], 0.0271 µM; in experiment [5] it was 0.0339 µM; in experiment [6], 0.0377 µM. Further, the GI50 in experiment [7] is 2.72 µM; in experiment [8] it was 0.0802 µM; in experiment [9], 0.0675 µM; in experiment [10] it was 0.0627 µM. The TGI came out at 25.4 µM in [1]; 25.5 µM in experiment [2]; 2.39 µM in experiment [3]; 19.8 µM in experiment [4]; 5.9 µM in experiment [5]; 17.5 µM in [6]. Also, the TGI in experiment [7] was 31.6 µM; in experiment [8] it was more than 100 µM; in experiment [9] it was more than 100 µM; in experiment [10] it was 14.6 µM.

In the case of `CCOC(=O)C1CCC/C1=N\N=C(N)N` (stereo not given) (tested in a mixture with another compound), the TGI in experiment [1], in experiment [2], in [3], in experiment [4], in experiment [5] and in experiment [6] was more than 100 µM each time. In addition, the TGI in experiment [7], in experiment [8], in experiment [9] and in experiment [10] was more than 100 µM throughout.

For the compound `Cc1cccc2c3c(sc12)C(c1ccc(Cl)cc1)C(C#N)=C(/N=C/c1ccc(Cl)cc1)O3` (stereo not given), the GI50 in [1] was 0.754 µM; in experiment [2] it was more than 100 µM; in experiment [3], 0.298 µM; in experiment [4], 0.281 µM; in experiment [5] it was 0.267 µM; in [6] it was 0.448 µM. Further, the GI50 was 0.625 µM in [7], 0.623 µM in [8], 0.517 µM in experiment [9] and 0.413 µM in [10]. Moreover, the TGI in [1] was 20.6 µM; in [2], more than 100 µM; in experiment [3], 1.26 µM; in experiment [4] it was more than 46.5 µM; in experiment [5], 2.37 µM; in experiment [6], more than 100 µM. Moreover, the TGI in [7], in experiment [8], in experiment [9] and in experiment [10] was more than 100 µM throughout.

With `O=C(Nc1ccccc1Cl)c1cnc2ccc(C3CCNCC3)cn12`, the GI50 in [1] is 2.48 µM; in experiment [2], 16.2 µM; in [3], 4.94 µM; in experiment [4] it was 8.23 µM; in experiment [5], 24.8 µM; in experiment [6] it was more than 85.4 µM. For the same compound, the GI50 is 5.53 µM in [7], 3.71 µM in [8], 55.9 µM in experiment [9] and 0.626 µM in experiment [10]. The TGI in experiment [1] was 59.7 µM; in experiment [2] it was 37.1 µM; in [3], more than 100 µM; in experiment [4], more than 100 µM; in [5], more than 83.9 µM; in experiment [6], more than 100 µM. Moreover, the TGI in experiment [7] was more than 100 µM; in experiment [8], more than 100 µM; in experiment [9] it was more than 100 µM; in experiment [10], 14.6 µM.

For the compound `Clc1nc(Cl)c2ncn(C/C=C\Cn3cnc4c(Cl)nc(Cl)nc43)c2n1`, the GI50 was 2.72 µM in experiment [1]; 2.56 µM in [2]; 2.49 µM in [3]; 3.1 µM in experiment [4]; 1.54 µM in [5]; 1.71 µM in [6]. Further, the GI50 was 0.951 µM in experiment [7], 3.01 µM in experiment [8], 2.05 µM in experiment [9] and 1.17 µM in [10]. The TGI is 5.95 µM in [1]; 12.1 µM in [2]; 5.97 µM in [3]; more than 100 µM in [4]; 3.06 µM in experiment [5]; 3.2 µM in [6]. For the same compound, the TGI in [7] was 2.79 µM; in experiment [8], 9.71 µM; in experiment [9] it was 4.11 µM; in [10], 2.94 µM.

For the compound `O=c1c2cc(Br)ccc2oc2ccc(Br)cc12`, the TGI in experiment [1], in experiment [2], in experiment [3], in experiment [4], in experiment [5] and in experiment [6] was more than 100 µM each time. Also, the TGI in experiment [7], in experiment [8], in [9] and in experiment [10] was more than 100 µM in each case.

`FC(F)(F)c1ccc2c(c1)N(CCCN1CCN(C3CC3)CC1)c1ccccc1S2`: the GI50 was 10.9 µM in experiment [1]; 5.57 µM in experiment [2]; 14 µM in [3]; 3.98 µM in [4]; 3.74 µM in experiment [5]; 7.68 µM in experiment [6]. For the same compound, the GI50 was 12.5 µM in [7], 13.3 µM in experiment [8], 6.13 µM in [9] and 11.6 µM in experiment [10]. Further, the TGI in [1] is 26.1 µM; in experiment [2], 19 µM; in [3], 29.5 µM; in experiment [4], 20.5 µM; in [5], 18.4 µM; in experiment [6], 21 µM. The TGI is 26.9 µM in [7], 28.1 µM in experiment [8], 23.7 µM in [9] and 28.3 µM in experiment [10].
